Laboratory results reported in publication PMC12005787, “Synthetic Lethality of SHP2 and XIAP Suppresses Proliferation and Metastasis in KRAS‐mutant Nonsmall Cell Lung Cancer” (Advanced Science, 2025).
Like-named read-outs stand apart in the source and are kept apart here.

Legend:
HCC44 cells = experiment: Cell viability assay (CCK-8); type: cell-based; conditions: Homo sapiens
Experimental: (§1) supplies are listed in Supplementary Table S5. […]
(§2) KRAS-mutant and wild-type cells are listed in Supplementary Table S7.
(§3) For the adherent cell viability assay, cells in the logarithmic growth phase were seeded in 96-well culture plates at a density of 5×103 well-1 and incubated overnight. Diluted compounds or DMSO were added, or specific treatments were incubated at 37 °C and 5% CO2 for 24 h or 48 h. Cell viability was determined using CCK-8 or CellLightTM Cell Viability Assay Kit, according to the manufacturer's protocol. The luminescence signals of the treated samples were normalized to those of the DMSO group. […]

A549 cells = experiment: Cell viability assay (CCK-8); type: cell-based; conditions: Homo sapiens
Experimental: as §1, §2, §3

NCI-H1155 cells = experiment: Cell viability assay (CCK-8); type: cell-based; conditions: Homo sapiens
Experimental: as §1, §2, §3

HCT15 cells = experiment: Cell viability assay (CCK-8); type: cell-based; conditions: Homo sapiens, HCT-15
Experimental: as §1, §2, §3

NCI-H2122 cells = experiment: Cell viability assay (CCK-8); type: cell-based; conditions: Homo sapiens
Experimental: as §1, §2, §3

Lewis/Luc1 cells = experiment: Cell viability assay (CCK-8); type: cell-based
Experimental: as §1, §2, §3

HeLa cells = experiment: Cell viability assay (CCK-8); type: cell-based; conditions: Homo sapiens
Experimental: as §1, §2, §3

SW1417 cells = experiment: Cell viability assay (CCK-8); type: cell-based; conditions: Homo sapiens
Experimental: as §1, §2, §3

[1] = test system: RAS wild‐type and mutant cells; experiment: Colony formation assay; type: cell-based
Experimental: as §1
Colony formation experiment
Cells in the logarithmic growth phase were digested thoroughly into a single dispersed state and inoculated into six-well plates at a density of 100 well-1. Subsequently, different concentrations of the drugs were added for 14 d, consecutively, and the solution was changed every 2 d. Next, the cells were fixed with 4% formaldehyde, stained with 0.1% crystal violet, and the number of clones was counted using an inverted microscope. […]

His‐ΔSHP2 = target: T1, His‐ΔSHP2 (Homo sapiens, UniProt Q06124); experiment: Enzymatic inhibition analysis (Michaelis-Menten, Lineweaver-Burk); type: biochemical
T1 construct: His‐ΔSHP2, encompassing the peptide from amino acids 205–593 retaining PTP activity; His; made in house; host or cells: E. coli
T1 sequence (Q06124 205-593): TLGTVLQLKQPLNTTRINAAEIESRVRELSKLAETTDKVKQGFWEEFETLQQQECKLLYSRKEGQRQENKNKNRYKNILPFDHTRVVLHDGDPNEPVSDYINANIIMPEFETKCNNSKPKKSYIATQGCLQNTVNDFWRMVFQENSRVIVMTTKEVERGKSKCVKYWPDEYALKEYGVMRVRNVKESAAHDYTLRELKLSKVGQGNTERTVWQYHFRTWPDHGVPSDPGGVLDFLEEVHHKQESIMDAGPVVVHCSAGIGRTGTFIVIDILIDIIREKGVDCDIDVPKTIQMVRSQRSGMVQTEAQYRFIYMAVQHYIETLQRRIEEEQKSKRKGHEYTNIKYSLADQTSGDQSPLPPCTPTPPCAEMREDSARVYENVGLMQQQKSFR
Experimental: A Michaelis‐Menten model and Lineweaver‐Burk plot of SHP2 inhibition by embelin were established. In brief, enzyme kinetics of SHP2 varied with the concentrations of substrate DiFMUP and embelin, concentrations of embelin were selected at 0, 10, and 20 µM, and concentrations of DiFMUP were selected at 10, 20, 40, 80, and 160 µM. Recombinant His‐ΔSHP2 was preincubated for 30 min with embelin or DMSO at various concentrations in the absence of substrate and then assayed for enzymatic activity at different times as mentioned above.

SHP2 = target: T2, SHP2 (Homo sapiens, UniProt Q06124); experiment: Cellular thermal shift assay (CETSA); type: binding; conditions: NCI‐H2122 cell lysate
T2 construct: endogenous in cells; host or cells: NCI-H2122
T2 sequence (Q06124 1-593): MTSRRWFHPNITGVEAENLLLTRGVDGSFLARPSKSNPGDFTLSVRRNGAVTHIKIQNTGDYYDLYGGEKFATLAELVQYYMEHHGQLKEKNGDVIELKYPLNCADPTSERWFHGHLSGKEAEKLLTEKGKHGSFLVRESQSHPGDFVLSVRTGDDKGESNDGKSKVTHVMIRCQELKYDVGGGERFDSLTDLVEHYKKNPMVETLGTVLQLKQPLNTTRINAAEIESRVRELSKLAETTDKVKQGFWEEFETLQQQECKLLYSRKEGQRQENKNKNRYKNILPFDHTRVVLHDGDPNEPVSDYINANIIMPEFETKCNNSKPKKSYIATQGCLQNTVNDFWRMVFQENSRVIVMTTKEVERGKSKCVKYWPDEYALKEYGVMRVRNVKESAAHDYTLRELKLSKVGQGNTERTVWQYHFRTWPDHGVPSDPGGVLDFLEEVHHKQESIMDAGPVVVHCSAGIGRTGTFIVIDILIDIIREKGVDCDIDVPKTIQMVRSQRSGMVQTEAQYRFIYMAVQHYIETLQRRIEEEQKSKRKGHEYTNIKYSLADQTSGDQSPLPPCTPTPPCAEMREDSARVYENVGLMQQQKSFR
Experimental: (§4) NCI‐H2122 cells were harvested and resuspended with pre‐cooled PBS containing 1% cocktail, which was then frozen in liquid nitrogen for 5 min and thawed in a water bath at 37 °C for 5 min for three repetitions. The supernatant was collected via centrifugation at 4 °C (15 000 × g, 20 min), divided into two equal portions; one was added with test drugs or various concentrations of embelin, and the other was added with DMSO as control and subsequently incubated at 25 °C for 30 min. All samples were heated at temperatures ranging from 52–70 °C for 3 min, and subsequently in an ice bath for 3 min and collected by centrifugation at 4 °C (15 000 × g, 20 min), and added with protein sampling buffer at 100 °C for 5 min, followed by analysis of protein stability using western blotting.

XIAP = target: T3, XIAP (Homo sapiens, UniProt P98170); experiment: Cellular thermal shift assay (CETSA); type: binding; conditions: 56 and 62 ℃
T3 construct: endogenous in cells; host or cells: NCI-H2122
T3 sequence (P98170 whole entry): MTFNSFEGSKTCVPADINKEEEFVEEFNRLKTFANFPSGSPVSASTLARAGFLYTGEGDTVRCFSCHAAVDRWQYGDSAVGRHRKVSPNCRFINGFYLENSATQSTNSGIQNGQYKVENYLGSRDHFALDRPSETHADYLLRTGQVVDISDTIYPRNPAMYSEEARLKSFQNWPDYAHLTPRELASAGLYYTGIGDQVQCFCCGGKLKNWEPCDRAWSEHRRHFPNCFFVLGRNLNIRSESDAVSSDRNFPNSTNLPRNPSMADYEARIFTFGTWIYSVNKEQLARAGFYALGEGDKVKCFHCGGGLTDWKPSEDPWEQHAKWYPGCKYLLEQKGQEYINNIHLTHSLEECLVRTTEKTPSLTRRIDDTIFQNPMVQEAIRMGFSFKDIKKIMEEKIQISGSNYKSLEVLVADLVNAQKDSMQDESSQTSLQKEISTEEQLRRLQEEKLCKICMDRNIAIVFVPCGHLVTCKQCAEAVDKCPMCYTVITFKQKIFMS
Experimental: as §4

[2] = embelin 0, 10, 20 µM, DiFMUP 10-160 µM

CCCCCCCCCCCC1=C(O)C(=O)C=C(O)C1=O [Embelin]
IC50 (HCC44 cells; HCC44, 48 h, read-out: IC50 at 48 h): 6.52 ± 0.4 µM | IC50 (HCC44 cells; HCC44, KRAS G12C, 24 h, read-out: IC50 at 24 h): 27.3 ± 0.44 µM | IC50 (A549 cells; A549, 48 h, read-out: IC50 at 48 h): 6.5 ± 0.9 µM | IC50 (A549 cells; A549, KRAS G12S, 24 h, read-out: IC50 at 24 h): 7.9 µM | IC50 (NCI-H1155 cells; NCI-H1155, 48 h, read-out: IC50 at 48 h): 7.07 ± 0.45 µM | IC50 (NCI-H1155 cells; NCI-H1155, KRAS Q61H, 24 h, read-out: IC50 at 24 h): 16.1 ± 0.36 µM | IC50 (HCT15 cells; HCT15, 48 h, read-out: IC50 at 48 h): 9.95 ± 0.38 µM | IC50 (HCT15 cells; HCT15, KRAS G13D, 24 h, read-out: IC50 at 24 h): 12.8 ± 0.43 µM | IC50 (NCI-H2122 cells; NCI-H2122, 48 h, read-out: IC50 at 48 h): 4.03 ± 0.1 µM | IC50 (NCI-H2122 cells; NCI-H2122, KRAS G12C, 24 h, read-out: IC50 at 24 h): 4.9 ± 0.1 µM | IC50 (Lewis/Luc1 cells; Lewis/Luc1, 48 h, read-out: IC50 at 48 h): 18.2 ± 0.9 µM | IC50 (Lewis/Luc1 cells; Lewis/Luc1, RAS-wild type, 24 h, read-out: IC50 at 24 h): 20.6 ± 0.6 µM | IC50 (HeLa cells; 48 h, read-out: IC50 at 48 h): 13.4 ± 0.6 µM | IC50 (HeLa cells; RAS-wild type, 24 h, read-out: IC50 at 24 h): 16.5 ± 0.2 µM | IC50 (SW1417 cells; SW1417, 48 h, read-out: IC50 at 48 h): 14.9 ± 0.34 µM | IC50 (SW1417 cells; SW1417, RAS-wild type, 24 h, read-out: IC50 at 24 h): 65.39 ± 0.36 µM | colony formation [1]: cytotoxic effects on both RAS | type of inhibition of SHP2 (His‐ΔSHP2): noncompetitive inhibitor | Km of ΔSHP2 protein after addition of compound (His‐ΔSHP2; [2]): unchanged | Vm of ΔSHP2 protein after addition of compound (His‐ΔSHP2; [2]): decreased | effect on SHP2 protein stability (CETSA) (SHP2): increased the stability of SHP2 protein

CC1(N)CCN(c2cnc(-c3cccc(Cl)c3Cl)c(N)n2)CC1 [SHP099]
effect on XIAP protein stability (CETSA) (XIAP): did not affect XIAP protein stability
